Consider 1 compound from patent US20170042890A1, “METHODS OF REDUCING DECLINE IN VITAL CAPACITY” (Cytokinetics, Inc., priority 2014, published 2017).

The test system of the assay is patients with ALS. Put plainly: BENEFIT-ALS clinical trial: handgrip fatigue at 60% of target in the weaker hand. The class given is in vivo, human. As for the experimental part:
BENEFIT-ALS was a multi-national, randomized, stratified, double-blind, placebo-controlled, parallel-group study of tirasemtiv in patients with ALS. The study consisted of a screening period, an open-label/lead-in period, and a double-blind treatment period. Following screening, eligible patients received open-label tirasemtiv, 125 mg BID, for 7 days. Patients who tolerated the 7-day lead-in period were randomized in a 1:1 ratio to tirasemtiv or placebo. Over the first 3 weeks of double-blind treatment, patients randomized to tirasemtiv had their TDD up-titrated as follows: 250 mg for 7 days, then 375 mg for 7 days, then 500 mg for 7 days. […] However, in such cases, dose escalation was re-attempted at least one additional time. The highest tolerable tirasemtiv dose for each individual patient was the dose that patient received for the remaining 9 weeks (i.e., the maximum tolerated dose [MTD] phase) of the study. Patients randomized to placebo underwent a corresponding dummy dose titration.
Randomization was stratified by riluzole use. […] Clinical assessments occurred every 4 weeks during double-blind treatment; patients also returned for follow-up evaluations at 1 and 4 weeks after their final dose of double-blind study medication (FIG. 1).
The secondary objectives included assessments of the effect of tirasemtiv versus placebo on measures of respiratory function (Maximum Voluntary Ventilation (MVV), Sniff Nasal Inspiratory Pressure (SNIP), SVC) and skeletal muscle function including handgrip fatigue and muscle-strength mega-score (i.e., the average z-score for muscle strength measurements across the following tested bilateral muscle groups: elbow flexion, wrist extension, knee extension, ankle dorsiflexion, and handgrip)). Secondary endpoints included the changes from baseline in each of the above mentioned measures (MVV, SNIP, SVC, and muscle-strength mega-score) for the Modified FAS, and the slope of each of the measures from baseline to Week 12 for the Modified FAS.
Eligible patients were males and females, 18 years of age and older, with a diagnosis of familial or sporadic ALS and meeting the World Federation of Neurology El Escorial criteria of definite ALS, probable ALS, laboratory-supported probable ALS, or possible ALS. Patients were to have an upright SVC>50% of predicted for age, height, and sex, a diminished, but measurable, maximum voluntary grip strength in at least one hand (i.e., between 10-50 pounds for females and 10-70 pounds for males), and at least 4 of the 12 ALSFRS-R questions were to have been scored as a 2 or 3. Patients were to be able to swallow tablets without crushing, and in the opinion of the investigator, were expected to do so for the duration of the study. If the patient needed a caregiver, the caregiver was to be able to observe the patient's status. Clinical laboratory results were to be either within their respective normal ranges or if outside the normal range, deemed not clinically significant by the investigator. […] Patients not taking riluzole prior to study entry were not permitted to take riluzole at any dose during the course of the study.
Safety data presented were based on the safety analysis set, defined as all patients who received at least 1 dose of double-blind study drug. Of the 605 randomized patients, 596 (295 placebo, 301 tirasemtiv) received at least 1 dose of double-blind study drug and were included in the safety analysis set. Data for the primary and secondary efficacy endpoints were analyzed with the Modified FAS. This analysis set included all patients who received at least 1 dose of double-blind study drug and had at least 1 efficacy assessment during the double-blind treatment period, and excluded 156 patients who were randomized in blocks containing patients affected by a study drug assignment error in which 58 patients randomized to and treated with double-blind tirasemtiv were dispensed double-blind placebo instead. […]

As for `C#Cc1cnc2nc(O)n(C(CC)CC)c2n1` [Tirasemtiv, 6-ethynyl-1-(pentan-3-yl)-1H-imidazo[4,5-b]pyrazin-2(3H)one], under “Modified FAS N=178”, the “Handgrip fatigue slope from baseline to Week 12” value was 0.0458. The “Handgrip fatigue at 60% of target in the weaker hand, change from baseline (LS mean)” value runs as follows: (Week 4, Modified FAS N=178) -1.77 s; (Week 8, Modified FAS N=178) 4.60 s; (Week 12, Modified FAS N=178) -0.57 s. Also, the “Handgrip fatigue versus placebo, in words” value (human, in vivo) is reported as “no statistically significant difference between treatment groups”. Also, for the setting “p=0.6372”, the “Handgrip fatigue difference in slope (tirasemtiv vs placebo)” value is listed as 0.0332.
